According to patent US11045561B2, “Rotaxane-type probe for molecular imaging” (Rhode Island Council on Postsecondary Education, priority 2017, dated 2021):

Legend:
[1] = HyperCEST detection by hyperpolarized 129Xe NMR (fritted phantom, 3T clinical scanner); details: 10 mM in water; saturation pulse at about +128 ppm; 3T scanner
Procedure: FIGS. 7A and 7B show HyperCEST data for rotaxane-type biosensors: (FIG. 7A) cucurbiturils and pillararene-based; (FIG. 7B) cycodextrin-based. [Note: ^a Samples were dissolved in water (2 mL, 10 mM), and 1D ^129Xe spectrum were initially recorded and then a series of HyperCEST spectra were sequentially recorded using a series of off resonance pulses varying by 5 ppm. ^b Performed in H2O/DMSO. ^c Performed in CHCl3.]
For the HP-Xe studies, we used a custom-built fritted phantom inside of a custom dual tuned ^1H/^129Xe radiofrequency (RF) coil to acquire all free induction decay (FID) spectra (FIG. 6). Rotaxane-type biosensor molecules, dissolved in water and/or DMSO, were placed inside the fritted phantom, and HP ^129Xe was introduced below the fritted phantom that created microbubbles that rose vertically through the sample. A series of saturation pre-pulses at a variety of chemical shift offsets were loaded into the user interface software of the […] Achieva 3T MR scanner. Spectra with different saturation pre-pulses were acquired approximately every six seconds. […]
Nuclear Magnetic Resonance (NMR) HyperCEST Detection. […] The RF pulse length was determined with the use of the Ref B1, a parameter of Philips MR scanners. […] In this study, the B1 field strength was determined by the scanner to be 15.9 μT. […]

[2] = cited from earlier work; for affinity for xenon as observed by 129Xe NMR: aqueous media, room temperature for cyclodextrins

| Compound | affinity for xenon as observed by 129Xe NMR [2] | other results |
| --- | --- | --- |
| O=C1N2CN3C(=O)N4CN5C(=O)N6CN7C(=O)N8CN9C(=O)N%10CN%11C(=O)N%12CN1C1C2N2CN%13C(=O)N(CN%14C(=O)N(CN%15C(=O)N(CN%16C(=O)N(CN%17C(=O)N(CN1C2=O)C%12C%11%17)C%10C9%16)C8C7%15)C6C5%14)C4C3%13 (stereo not shown) [CB6, cucurbit[6]uril] |  | HyperCEST depletion (maximum) [1]: 67% |
| OC[C@H]1O[C@@H]2O[C@H]3[C@H](O)[C@@H](O)[C@@H](O[C@H]4[C@H](O)[C@@H](O)[C@@H](O[C@H]5[C@H](O)[C@@H](O)[C@@H](O[C@H]6[C@H](O)[C@@H](O)[C@@H](O[C@H]7[C@H](O)[C@@H](O)[C@@H](O[C@H]1[C@H](O)[C@H]2O)O[C@@H]7CO)O[C@@H]6CO)O[C@@H]5CO)O[C@@H]4CO)O[C@@H]3CO [α-CD, α-cyclodextrin] | either fail to bind xenon in aqueous media, or the reversible binding has too fast of an exchange rate to be detectable |  |
| COc1cc2c3cc1OCCOc1cc4c(cc1OC)Cc1cc5c(OC)cc1Cc1cc(c(OC)cc1C4)OCCOc1cc(c(cc1OC)C3)Cc1cc(OC)c(cc1C2)OCCO5 [Cryptophane-A] |  | xenon residence time ([2]; room temperature): 0.5 to 8 ms |
| O=C1N2CN3C(=O)N4CN5C(=O)N6CN7C(=O)N8CN9C(=O)N%10CN%11C(=O)N%12CN%13C(=O)N%14CN%15C(=O)N%16CN1C1C2N2CN%17C(=O)N(CN%18C(=O)N(CN%19C(=O)N(CN%20C(=O)N(CN%21C(=O)N(CN%22C(=O)N(CN%23C(=O)N(CN1C2=O)C%16C%15%23)C%14C%13%22)C%12C%11%21)C%10C9%20)C8C7%19)C6C5%18)C4C3%17 (stereo not shown) [CB[8], cucurbit[8]uril] | do not show any affinity for xenon |  |
| OC[C@H]1O[C@@H]2O[C@H]3[C@H](O)[C@@H](O)[C@@H](O[C@H]4[C@H](O)[C@@H](O)[C@@H](O[C@H]5[C@H](O)[C@@H](O)[C@@H](O[C@H]6[C@H](O)[C@@H](O)[C@@H](O[C@H]7[C@H](O)[C@@H](O)[C@@H](O[C@H]8[C@H](O)[C@@H](O)[C@@H](O[C@H]9[C@H](O)[C@@H](O)[C@@H](O[C@H]1[C@H](O)[C@H]2O)O[C@@H]9CO)O[C@@H]8CO)O[C@@H]7CO)O[C@@H]6CO)O[C@@H]5CO)O[C@@H]4CO)O[C@@H]3CO [γ-CD, γ-cyclodextrin] | either fail to bind xenon in aqueous media, or the reversible binding has too fast of an exchange rate to be detectable |  |
| cucurbit[7]uril [CB[7]] | do not show any affinity for xenon |  |
| OC[C@H]1O[C@@H]2O[C@H]3[C@H](O)[C@@H](O)[C@@H](O[C@H]4[C@H](O)[C@@H](O)[C@@H](O[C@H]5[C@H](O)[C@@H](O)[C@@H](O[C@H]6[C@H](O)[C@@H](O)[C@@H](O[C@H]7[C@H](O)[C@@H](O)[C@@H](O[C@H]8[C@H](O)[C@@H](O)[C@@H](O[C@H]1[C@H](O)[C@H]2O)O[C@@H]8CO)O[C@@H]7CO)O[C@@H]6CO)O[C@@H]5CO)O[C@@H]4CO)O[C@@H]3CO [β-CD, β-cyclodextrin] | either fail to bind xenon in aqueous media, or the reversible binding has too fast of an exchange rate to be detectable |  |
